Measurements: ChEMBL document CHEMBL5226353, “Cytotoxic Activities of 9,10-seco-Cycloartane-Type Triterpenoids from the Chinese Liverwort Lepidozia reptans” (J Nat Prod, 2021)
pIC50: −log10 of the molar value. Where a name gives a salt, the structure may show the parent alone.

Experiments:
PC-3 [1] = experiment: Cytotoxicity against human PC-3 cells assessed as inhibition of cell growth incubated for 48 hrs by MTT assay; assay type: functional, cell-based; conditions: PC-3, 48 h
A549 = experiment: Cytotoxicity against human A549 cells assessed as inhibition of cell growth incubated for 48 hrs by MTT assay; assay type: functional, cell-based; conditions: A549, 48 h
NCI-H446 = experiment: Cytotoxicity against human NCI-H446 cells assessed as inhibition of cell growth incubated for 48 hrs by MTT assay; assay type: functional, cell-based; conditions: NCI-H446, 48 h
NCI-H3255 = experiment: Cytotoxicity against human NCI-H3255 cells assessed as inhibition of cell growth incubated for 48 hrs by MTT assay; assay type: functional, cell-based; conditions: NCI-H3255, 48 h
PC-3 [2] = experiment: Induction of apoptosis in human PC-3 cells assessed as late apoptotic cells at 2.5 uM measured after 24 hrs by annexinV-FITC staining based flow cytometric analysis (reference value: 1.87 %); assay type: functional
PC-3 [3] = experiment: Induction of apoptosis in human PC-3 cells assessed as necrotic cells up to 10 uM measured at 4 hrs by annexinV-FITC staining based flow cytometric analysis (reference value: 3.69 %); assay type: functional
PC-3 [4] = experiment: Induction of apoptosis in human PC-3 cells assessed as late apoptotic cells at 5 uM measured after 24 hrs by annexinV-FITC staining based flow cytometric analysis (reference value: 1.87 %); assay type: functional
PC-3 [5] = experiment: Induction of apoptosis in human PC-3 cells assessed as late apoptotic cells up to 10 uM measured at 2 hrs by annexinV-FITC staining based flow cytometric analysis (reference value: 4.64 %); assay type: functional
PC-3 [6] = experiment: Induction of apoptosis in human PC-3 cells assessed as necrotic cells at 5 uM measured after 24 hrs by annexinV-FITC staining based flow cytometric analysis (reference value: 5.09 %); assay type: functional
PC-3 [7] = experiment: Induction of apoptosis in human PC-3 cells assessed as early apoptotic cells up to 10 uM measured at 4 hrs by annexinV-FITC staining based flow cytometric analysis (reference value: 0.55 %); assay type: functional
PC-3 [8] = experiment: Induction of apoptosis in human PC-3 cells assessed as early apoptotic cells at 10 uM measured after 24 hrs by annexinV-FITC staining based flow cytometric analysis (reference value: 0.12 %); assay type: functional
PC-3 [9] = experiment: Induction of apoptosis in human PC-3 cells assessed as late apoptotic cells up to 10 uM measured at 4 hrs by annexinV-FITC staining based flow cytometric analysis (reference value: 4.64 %); assay type: functional
PC-3 [10] = experiment: Induction of apoptosis in human PC-3 cells assessed as necrotic cells up to 10 uM measured at 2 hrs by annexinV-FITC staining based flow cytometric analysis (reference value: 3.69 %); assay type: functional
PC-3 [11] = experiment: Induction of apoptosis in human PC-3 cells assessed as viable cells up to 10 uM measured at 8 hrs by annexinV-FITC staining based flow cytometric analysis (reference value: 91.1 %); assay type: functional
PC-3 [12] = experiment: Induction of apoptosis in human PC-3 cells assessed as necrotic cells up to 10 uM measured at 24 hrs by annexinV-FITC staining based flow cytometric analysis (reference value: 3.69 %); assay type: functional
PC-3 [13] = experiment: Induction of apoptosis in human PC-3 cells assessed as late apoptotic cells up to 10 uM measured at 12 hrs by annexinV-FITC staining based flow cytometric analysis (reference value: 4.64 %); assay type: functional
PC-3 [14] = experiment: Induction of apoptosis in human PC-3 cells assessed as increase in ROS levels at measured after 24 hrs by DCFH-DA staining based flow cytometry assay; assay type: functional, cell-based; conditions: dose <= 10.0 µM
PC-3 [15] = experiment: Induction of apoptosis in human PC-3 cells assessed as early apoptotic cells up to 10 uM measured at 2 hrs by annexinV-FITC staining based flow cytometric analysis (reference value: 0.55 %); assay type: functional
PC-3 [16] = experiment: Induction of apoptosis in human PC-3 cells assessed as early apoptotic cells up to 10 uM measured at 12 hrs by annexinV-FITC staining based flow cytometric analysis (reference value: 0.55 %); assay type: functional
PC-3 [17] = experiment: Induction of apoptosis in human PC-3 cells assessed as viable cells up to 10 uM measured att 12 hrs by annexinV-FITC staining based flow cytometric analysis (reference value: 91.1 %); assay type: functional
PC-3 [18] = experiment: Induction of apoptosis in human PC-3 cells assessed as late apoptotic cells up to 10 uM measured at 24 hrs by annexinV-FITC staining based flow cytometric analysis (reference value: 4.64 %); assay type: functional
PC-3 [19] = experiment: Induction of apoptosis in human PC-3 cells assessed as early apoptotic cells up to 10 uM measured at 24 hrs by annexinV-FITC staining based flow cytometric analysis (reference value: 0.55 %); assay type: functional
PC-3 [20] = experiment: Induction of apoptosis in human PC-3 cells assessed as viable cells at 10 uM measured after 24 hrs by annexinV-FITC staining based flow cytometric analysis (reference value: 92.9 %); assay type: functional; conditions: read-out: Activity
PC-3 [21] = experiment: Induction of apoptosis in human PC-3 cells assessed as viable cells up to 10 uM measured at 4 hrs by annexinV-FITC staining based flow cytometric analysis (reference value: 91.1 %); assay type: functional
PC-3 [22] = experiment: Induction of apoptosis in human PC-3 cells assessed as necrotic cells up to 10 uM measured at 12 hrs by annexinV-FITC staining based flow cytometric analysis (reference value: 3.69 %); assay type: functional
PC-3 [23] = experiment: Induction of mitochondrial membrane potential loss in human PC-3 cells at 6 uM measured after 24 hrs by JC-1 dye-based flow cytometric analysis (reference value: 100 %); assay type: functional
PC-3 [24] = experiment: Induction of mitochondrial membrane potential loss in human PC-3 cells at 2 uM measured after 24 hrs by JC-1 dye-based flow cytometric analysis (reference value: 100 %); assay type: functional
PC-3 [25] = experiment: Induction of apoptosis in human PC-3 cells assessed as early apoptotic cells at 5 uM measured after 24 hrs by annexinV-FITC staining based flow cytometric analysis (reference value: 0.12 %); assay type: functional
PC-3 [26] = experiment: Induction of apoptosis in human PC-3 cells assessed as viable cells at 2.5 uM measured after 24 hrs by annexinV-FITC staining based flow cytometric analysis (reference value: 92.9 %); assay type: functional; conditions: read-out: Activity
PC-3 [27] = experiment: Induction of apoptosis in human PC-3 cells assessed as viable cells at 5 uM measured after 24 hrs by annexinV-FITC staining based flow cytometric analysis (reference value: 92.9 %); assay type: functional; conditions: read-out: Activity
PC-3 [28] = experiment: Induction of apoptosis in human PC-3 cells assessed as early apoptotic cells at 2.5 uM measured after 24 hrs by annexinV-FITC staining based flow cytometric analysis (reference value: 0.12 %); assay type: functional
PC-3 [29] = experiment: Induction of apoptosis in human PC-3 cells assessed as late apoptotic cells up to 10 uM measured at 8 hrs by annexinV-FITC staining based flow cytometric analysis (reference value: 4.64 %); assay type: functional
PC-3 [30] = experiment: Induction of apoptosis in human PC-3 cells assessed as late apoptotic cells at 10 uM measured after 24 hrs by annexinV-FITC staining based flow cytometric analysis (reference value: 1.87 %); assay type: functional
PC-3 [31] = experiment: Induction of mitochondrial membrane potential loss in human PC-3 cells at 4 uM measured after 24 hrs by JC-1 dye-based flow cytometric analysis (reference value: 100 %); assay type: functional
PC-3 [32] = experiment: Induction of apoptosis in human PC-3 cells assessed as necrotic cells at 2.5 uM measured after 24 hrs by annexinV-FITC staining based flow cytometric analysis (reference value: 5.09 %); assay type: functional
PC-3 [33] = experiment: Induction of apoptosis in human PC-3 cells assessed as viable cells up to 10 uM measured at 2 hrs by annexinV-FITC staining based flow cytometric analysis (reference value: 91.1 %); assay type: functional
PC-3 [34] = experiment: Induction of apoptosis in human PC-3 cells assessed as necrotic cells up to 10 uM measured at 8 hrs by annexinV-FITC staining based flow cytometric analysis (reference value: 3.69 %); assay type: functional
PC-3 [35] = experiment: Induction of apoptosis in human PC-3 cells assessed as necrotic cells at 10 uM measured after 24 hrs by annexinV-FITC staining based flow cytometric analysis (reference value: 5.09 %); assay type: functional
PC-3 [36] = experiment: Induction of apoptosis in human PC-3 cells assessed as viable cells up to 10 uM measured att 24 hrs by annexinV-FITC staining based flow cytometric analysis (reference value: 91.1 %); assay type: functional
PC-3 [37] = experiment: Induction of apoptosis in human PC-3 cells assessed as early apoptotic cells up to 10 uM measured at 8 hrs by annexinV-FITC staining based flow cytometric analysis (reference value: 0.55 %); assay type: functional

With `COc1cccc2c1C(=O)c1c(O)c3c(c(O)c1C2=O)C[C@@](O)(C(=O)CO)C[C@@H]3O[C@H]1C[C@H](N)[C@H](O)[C@H](C)O1` [DOXORUBICIN HYDROCHLORIDE] the pIC50 (PC-3 [1]) was 6.40, the pIC50 (A549) was 5.92 and the pIC50 (NCI-H446) was 5.77. It also gave a pIC50 (NCI-H3255) of 5.82.

`C=C(C[C@@H](C)[C@H]1[C@H](O)C[C@@]2(C)[C@@H]3CC[C@H]4C(C)(C)[C@@H](O)CC[C@]4(O)CC3=CC[C@]12C)C(C)C` gave a pIC50 (PC-3 [1]) of 5.07, a pIC50 (A549) of 5.06 and a pIC50 (NCI-H446) of 5.02. For the same molecule, the pIC50 (NCI-H3255) was under 5.00.

Molecule `CC(C)=CCC[C@@H](C)[C@H]1[C@H](O)C[C@@]2(C)[C@@H]3CC[C@H]4C(C)(C)[C@@H](O)CC[C@]4(O)CC3=CC[C@]12C` has a pIC50 (PC-3 [1]) of 5.19, a pIC50 (A549) of 5.15 and a pIC50 (NCI-H446) of 5.12. It also gave a pIC50 (NCI-H3255) of 5.03.

Molecule `C=C(C)C(=O)CC[C@@H](C)[C@H]1[C@H](O)C[C@@]2(C)[C@@H]3CC[C@H]4C(C)(C)[C@@H](O)CC[C@]4(O)CC3=CC[C@]12C` has an Activity (PC-3 [2]) of 2.06%, an Activity (PC-3 [3]) of 6.67% and a pIC50 (PC-3 [1]) of 5.38. For the same molecule, the Activity (PC-3 [4]) was 3.81%, the Activity (PC-3 [5]) was 4.82% and the Activity (PC-3 [6]) was 2.68%. The Activity (PC-3 [7]) was 0.39%, the Activity (PC-3 [8]) was 0.78% and the Activity (PC-3 [9]) was 5.8%. For the same molecule, the Activity (PC-3 [10]) was 6.41%, the Activity (PC-3 [11]) was 88.8% and the pIC50 (A549) was 5.36. For the same molecule, the Activity (PC-3 [12]) was 4.25%, the Activity (PC-3 [13]) was 7.37% and the Activity (PC-3 [14]) was “Dose-Dependent Effect”. The Activity (PC-3 [15]) was 0.33%, the Activity (PC-3 [16]) was 2.63% and the Activity (PC-3 [17]) was 86.5%. For the same molecule, the Activity (PC-3 [18]) was 9.45%, the Activity (PC-3 [19]) was 3.3% and the viability at 10 µM (PC-3 [20]) was 45%. It also gave an Activity (PC-3 [21]) of 87.1%, an Activity (PC-3 [22]) of 3.48% and an Activity (PC-3 [23]) of 16.8%. For the same molecule, the Activity (PC-3 [24]) was 85.2%, the Activity (PC-3 [25]) was 1.64% and the viability at 2.5 µM (PC-3 [26]) was 93.2%. The viability at 5 µM (PC-3 [27]) was 91.9%, the Activity (PC-3 [28]) was 0.29% and the pIC50 (NCI-H446) was 5.30. It also gave an Activity (PC-3 [29]) of 5.96%, an Activity (PC-3 [30]) of 40.3% and an Activity (PC-3 [31]) of 71.5%. The pIC50 (NCI-H3255) was 5.24, the Activity (PC-3 [32]) was 4.44% and the Activity (PC-3 [33]) was 88.4%. It also gave an Activity (PC-3 [34]) of 4.5%, an Activity (PC-3 [35]) of 12.9% and an Activity (PC-3 [36]) of 83%. The Activity (PC-3 [37]) was 0.76%.
